The record followed here is patent publication US20240182445A1 (ONO PHARMACEUTICAL CO., LTD., priority 2019, published 2024).

One assay concerns the target T1, human TREK-1 (Homo sapiens, UniProt O95069).
T1 construct: expressed in transfected cells
T1 sequence (O95069 1-426): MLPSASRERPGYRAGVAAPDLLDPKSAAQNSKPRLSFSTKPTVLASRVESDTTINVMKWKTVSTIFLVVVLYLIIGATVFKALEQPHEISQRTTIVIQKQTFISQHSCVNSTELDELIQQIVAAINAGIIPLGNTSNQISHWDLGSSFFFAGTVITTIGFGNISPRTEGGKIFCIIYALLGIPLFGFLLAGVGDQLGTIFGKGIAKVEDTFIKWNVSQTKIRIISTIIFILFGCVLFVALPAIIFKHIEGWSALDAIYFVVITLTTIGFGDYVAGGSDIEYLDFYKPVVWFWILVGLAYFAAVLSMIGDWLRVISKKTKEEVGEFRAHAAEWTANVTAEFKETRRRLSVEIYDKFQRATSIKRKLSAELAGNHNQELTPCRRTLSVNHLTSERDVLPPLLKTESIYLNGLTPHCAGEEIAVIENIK
Briefly: TREK-1 Thallium (Tl+) flux assay, Method 1. The format is cell-based. As to conditions: TREK-1 Thallium (Tl+) flux assay, Method 1. An outline of the steps:
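Readout: Thallos fluorescence ratio, taken 25 s post-thallium relative to the pre-thallium baseline average, then converted to % inhibition. Cells were CHO-K1 stably expressing human TREK-1, dye-loaded and exposed to test compound (vehicle 0.3% DMSO) for 10 min prior to thallium stimulation.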
In general, IC50 refers to the midpoint of a concentration-inhibition curve. On to `Cc1cc(OCc2ccccc2)ccc1NC(=O)c1c(Cl)cnn1C1CCN(C(=O)C(C)C)CC1` [Compound 411, N-(4-(benzyloxy)-2-methylphenyl)-4-chloro-1-(1-isobutyrylpiperidin-4-yl)-1H-pyrazole-5-carboxamide], for which the half-maximal inhibitory concentration (IC50) worked out at 2840 nM. `Cc1cc(-c2cnn(-c3ccc(F)cc3)c2)cnc1NC(=O)c1c(Cl)cnn1C1CC(C#N)C1` (stereo not drawn) [Compound 394, 4-chloro-1-(3-cyanocyclobutyl)-N-(5-(1-(4-fluorophenyl)-1H-pyrazol-4-yl)-3-methylpyridin-2-yl)-1H-pyrazole-5-carboxamide] showed a half-inhibitory concentration (IC50) of 1340 nM. This IC50 lies about 2.1-fold lower than the previous one. With `Cc1ccc(-n2cc(-c3cnc(NC(=O)c4c(Cl)cnn4C4CCN(C(=O)OC(C)(C)C)CC4)c(C)c3)cn2)cc1` [Compound 409, tert-butyl 4-(4-chloro-5-((3-methyl-5-(1-(p-tolyl)-1H-pyrazol-4-yl)pyridin-2-yl)carbamoyl)-1H-pyrazol-1-yl)piperidine-1-carboxylate], it took 2770 nM to reach half-maximal inhibition (IC50). As to `COc1ccc(-c2cnc(NC(=O)c3c(Cl)cnn3C3CCN(C(=O)OC(C)(C)C)CC3)c(C)c2)cn1` [Compound 407, tert-butyl 4-(4-chloro-5-((6′-methoxy-5-methyl-[3,3′-bipyridin]-6-yl)carbamoyl)-1H-pyrazol-1-yl)piperidine-1-carboxylate], the half-maximal inhibitory concentration (IC50) was found to be 2570 nM.

The same assay, now with this note: TREK-1 Thallium (Tl+) flux assay; no *^12 (Method 2) mark on these rows.
As for `Cc1cc(C#Cc2ccccc2)cnc1NC(=O)c1c(Cl)cnn1C1CCCN(C(=O)OC(C)(C)C)CC1` (stereo not drawn) [Compound 277, tert-butyl 4-(4-chloro-5-((3-methyl-5-(phenylethynyl)pyridin-2-yl)carbamoyl)-1H-pyrazol-1-yl)azepane-1-carboxylate], half-maximal inhibition (IC50) required 480 nM. This counts as sub-micromolar. Same read-out and setting: the figure for `Cc1cc(-c2cnn(-c3ccc(F)cc3)c2)cnc1NC(=O)c1c(Cl)cnn1C[C@@H]1CCOC1` [Compound 379, (S)-4-chloro-N-(5-(1-(4-fluorophenyl)-1H-pyrazol-4-yl)-3-methylpyridin-2-yl)-1-((tetrahydrofuran-3-yl)methyl)-1H-pyrazole-5-carboxamide] is 320 nM; for `Cc1cc(C#Cc2ccc(F)cc2)cnc1NC(=O)c1c(Cl)cnn1CC1CN(C(=O)C2CCC2)CCO1` (stereo not drawn) [Compound 367, 4-chloro-1-((4-(cyclobutanecarbonyl)morpholin-2-yl)methyl)-N-(5-((4-fluorophenyl)ethynyl)-3-methylpyridin-2-yl)-1H-pyrazole-5-carboxamide] it is 940 nM; for `Cc1cc(C#Cc2ccccc2)cnc1NC(=O)c1c(Cl)cnn1CC1(C)CCN(C(=O)C2COCCO2)CC1` (stereo not drawn) [Compound 251, 1-((1-(1,4-dioxane-2-carbonyl)-4-methylpiperidin-4-yl)methyl)-4-chloro-N-(3-methyl-5-(phenylethynyl)pyridin-2-yl)-1H-pyrazole-5-carboxamide] it is 400 nM. For `CC(C)(C)OC(=O)N1CC(n2ncc(Cl)c2C(=O)Nc2ncc(C#Cc3ccccc3)cc2F)C1` [Compound 243, tert-butyl 3-(4-chloro-5-((3-fluoro-5-(phenylethynyl)pyridin-2-yl)carbamoyl)-1H-pyrazol-1-yl)azetidine-1-carboxylate], the half-inhibitory concentration (IC50) amounted to 380 nM. The same measure, in the same setting: for `CC(=O)N[C@H]1C[C@H](n2ncc(Cl)c2C(=O)Nc2ncc(C#Cc3ccc(F)cc3)cc2C)C1` [Compound 351, 1-(trans-3-acetamidocyclobutyl)-4-chloro-N-(5-((4-fluorophenyl)ethynyl)-3-methylpyridin-2-yl)-1H-pyrazole-5-carboxamide] the value was 820 nM; for `Cc1cc(C#Cc2cccs2)cnc1NC(=O)c1c(Cl)cnn1[C@H]1C[C@@H]2CN(C(=O)C(C)(C)C)C[C@@H]2C1` [Compound 354, 4-chloro-1-[(3aR,5s,6aS)-2-(2,2-dimethylpropanoyl)octahydrocyclopenta [c]pyrrol-5-yl]-N-{3-methyl-5-[(thiophen-2-yl)ethynyl]pyridin-2-yl}-1H-pyrazole-5-carboxamide], 850 nM; for `O=C(Nc1c(F)cc(C#Cc2ccccc2)cc1F)c1c(Cl)cnn1[C@H]1CCOC1` [Compound 199, (S)-4-chloro-N-(2,6-difluoro-4-(phenylethnyl)phenyl)-1-(tetrahydrofuran-3-yl)-1H-pyrazole-5-carboxamide], 310 nM. Turning to `Cc1cc(C#Cc2ccccc2)cnc1NC(=O)c1c(Cl)cnn1CC(C)(C)C#N` [Compound 276, 4-chloro-1-(2-cyano-2-methylpropyl)-N-(3-methyl-5-(phenylethynyl)pyridin-2-yl)-1H-pyrazole-5-carboxamide], the IC50 is 480 nM.

Still in this assay, the particulars now being: TREK-1 Thallium (Tl+) flux assay; values without footnote *12 are Method 1.
As for `Cc1cc(C#Cc2ccc(F)cc2)cnc1NC(=O)c1c(Cl)cnn1C1CCN(C(=O)C(C)(C)C)CC1` [Compound 181, 4-chloro-N-(5-((4-fluorophenyl)ethynyl)-3-methylpyridin-2-yl)-1-(1-pivaloylpiperidin-4-yl)-1H-pyrazole-5-carboxamide], half-maximal inhibition (IC50) was put at 280 nM. `Cc1cc(C#Cc2ccccc2)cnc1NC(=O)c1c(Cl)cnn1C(C)C1CCN(C(=O)OC(C)(C)C)CC1` (stereo not drawn) [Compound 77, tert-butyl 4-(1-(4-chloro-5-((3-methyl-5-(phenylethynyl)pyridin-2-yl)carbamoyl)-1H-pyrazol-1-yl)ethyl)piperidine-1-carboxylate] displayed an IC50 of 160 nM. `Cc1cc(C#Cc2ccccc2)cnc1NC(=O)c1c(Cl)cnn1-c1ccc2c(c1)OCCO2` [Compound 21, 4-chloro-1-(2,3-dihydrobenzo[b][1,4]dioxin-6-yl)-N-(3-methyl-5-(phenylethynyl)pyridin-2-yl)-1H-pyrazole-5-carboxamide] returned a 50% inhibitory concentration (IC50) of 70 nM.

Regarding `Cc1cc(C#Cc2ccccc2)cc(F)c1NC(=O)c1c(Cl)cnn1CC1(C#N)CC1` [Compound 127, 4-chloro-1-((1-cyanocyclopropyl)methyl)-N-(2-fluoro-6-methyl-4-(phenylethynyl)phenyl)-1H-pyrazole-5-carboxamide], half-maximal inhibition (IC50) was put at 220 nM. Turning to `O=C(Nc1ncc(C#Cc2ccccc2)cc1F)c1c(Cl)cnn1CCC1CCN(C(=O)C2CC2)CC1` [Compound 56, 4-chloro-1-(2-(1-(cyclopropanecarbonyl)piperidin-4-yl)ethyl)-N-(3-fluoro-5-(phenylethynyl)pyridin-2-yl)-1H-pyrazole-5-carboxamide], it took 140 nM to reach half-maximal inhibition (IC50). For `CC1CC1C(=O)N1CCC(n2ncc(Cl)c2C(=O)Nc2ncc(C#Cc3ccccc3)cc2F)CC1` (stereo not drawn) [Compound 91, 4-chloro-N-(3-fluoro-5-(phenylethynyl)pyridin-2-yl)-1-(1-(2-methylcyclopropane-1-carbonyl)piperidin-4-yl)-1H-pyrazole-5-carboxamide], the IC50 is 180 nM. As to `CCC(=O)N1CCC(n2ncc(Cl)c2C(=O)Nc2ncc(C#Cc3ccccc3)cc2F)CC1` [Compound 34, 4-chloro-N-(3-fluoro-5-(phenylethynyl)pyridin-2-yl)-1-(1-propionylpiperidin-4-yl)-1H-pyrazole-5-carboxamide], the IC50 came to 110 nM. Turning to `CC(C)(C)OC(=O)N1CCC(F)(Cn2ncc(Cl)c2C(=O)Nc2ncc(C#Cc3ccccc3)cc2F)CC1` [Compound 134, tert-butyl 4-((4-chloro-5-((3-fluoro-5-(phenylethynyl)pyridin-2-yl)carbamoyl)-1H-pyrazol-1-yl)methyl)-4-fluoropiperidine-1-carboxylate], the half-maximal inhibitory concentration (IC50) is 220 nM. This IC50 lies about 2-fold higher than the previous one. `CC(=O)N1CC[C@H](n2ncc(Cl)c2C(=O)Nc2ncc(C#Cc3ccccc3)cc2C)[C@H](F)C1` [Compound 99, 1-((3R,4S)-1-acetyl-3-fluoropiperidin-4-yl)-4-chloro-N-(3-methyl-5-(phenylethynyl)pyridin-2-yl)-1H-pyrazole-5-carboxamide] returned a half-maximal inhibitory concentration (IC50) of 180 nM. `CC(=O)N1CCC(CCn2ncc(Cl)c2C(=O)Nc2ncc(C#Cc3ccccc3)cc2C)CC1` [Compound 153, 1-(2-(1-acetylpiperidin-4-yl)ethyl)-4-chloro-N-(3-methyl-5-(phenylethynyl)pyridin-2-yl)-1H-pyrazole-5-carboxamide] registered an IC50 of 240 nM. Compound `Cc1cc(C#Cc2ccc(F)cc2)cnc1NC(=O)c1c(Cl)cnn1C1CCN(C(=O)C(C)C)CC1` [Compound 151, 4-chloro-N-(5-((4-fluorophenyl)ethynyl)-3-methylpyridin-2-yl)-1-(1-isobutyrylpiperidin-4-yl)-1H-pyrazole-5-carboxamide] returned an IC50 of 240 nM. The compound `CC(=O)N1CCC(n2ncc(Cl)c2C(=O)Nc2ncc(C#Cc3ccccc3)cc2C)C(F)C1` (stereo not drawn) [Compound 29, 1-(1-acetyl-3-fluoropiperidin-4-yl)-4-chloro-N-(3-methyl-5-(phenylethynyl)pyridin-2-yl)-1H-pyrazole-5-carboxamide] showed a 50% inhibitory concentration (IC50) of 100 nM.

Staying with this assay, now noted: read-out: Tl^+ Assay % inhibition at 30 uM (Minus value indicates activation of TREK-1); at 30 uM; CHO-K1 cells stably expressing human TREK-1; minus = activation.
In general, inhibition refers to the drop in the measured response relative to a control, in per cent. In the case of `Cc1cc(C#Cc2ccccc2F)cnc1NC(=O)c1nn(CCC2CCN(C(=O)C3CC3)CC2)cc1Cl` [Compound 441, 4-chloro-1-(2-(1-(cyclopropanecarbonyl)piperidin-4-yl)ethyl)-N-(5-((2-fluorophenyl)ethynyl)-3-methylpyridin-2-yl)-1H-pyrazole-3-carboxamide], the inhibition at 30 µM is -123%. On to `Cc1cc(C#Cc2ccccc2)cnc1NC(=O)c1nn(CC2COCCO2)cc1Cl` (stereo not drawn) [Compound 449, 1-((1,4-dioxan-2-yl)methyl)-4-chloro-N-(3-methyl-5-(phenylethynyl)pyridin-2-yl)-1H-pyrazole-3-carboxamide], for which the inhibition at 30 µM was -99%.
